Experimental data published in US10556865B2, “Synergistic herbicidal composition containing certain pyridine or pyrimidine carboxylic acids and certain cereal and rice herbicides” (Dow AgroSciences, LLC, priority 2007, dated 2020).
“And” between values parts separate entries of the source, which are not always exact repeats. Equal entries are not always repeated.

Legend:
Format in all cases: in vivo
[1] = system: Russian thistle (Salsola iberica L; SASKR); assay: Postemergence herbicidal activity of mixtures in cereal crops (greenhouse, visual injury)
Description: (§1) Seeds of the desired test plant species were planted in Sun Gro MetroMix® 306 planting mixture, which typically has a pH of 6.0 to 6.8 and an organic matter content of about 30 percent, in plastic pots with a surface area of 103.2 square centimeters (cm^2). When required to ensure good germination and healthy plants, a fungicide treatment and/or other chemical or physical treatment was applied. The plants were grown for 7-36 days in a greenhouse with an approximate 14 hour photoperiod which was maintained at about 18° C. during the day and 17° C. during the night. Nutrients and water were added on a regular basis and supplemental lighting was provided with overhead metal halide 1000-Watt lamps as necessary. The plants were employed for testing when they reached the second or third true leaf stage.
(§2) Treatments consisted of compound (as listed in Tables 1 through 64) and a second cereal herbicide alone and in combination. Weighed amounts of esters (methyl) or salts (TEA [triethylammonium], K [potassium]) of 4-amino-3-chloro -6-(4-chloro-2-fluoro-3-methoxyphenyl)pyridine-2-carboxylic acid (Compound A) or of 6-amino-5-chloro-2-(4-chloro-2-fluoro-3-methoxyphenyl)pyrimidine-4-carboxylic acid (Compound B), were placed in 25 milliliter (mL) glass vials and dissolved in a volume of 97:3 v/v acetone/DMSO to obtain 4.5 milligrams (mg) active ingredient (ai)/mL stock solutions. […] The concentrated stock solutions were diluted to 1.5 mg ai/mL with the addition of 2 volumes of an aqueous mixture containing acetone, water, isopropyl alcohol, DMSO, Agri-dex crop oil concentrate, and Triton® X-77 surfactant in a 64.7:26.0:6.7:2.0:0.7:0.01 v/v ratio. A dilution solution was prepared by mixing 1 volume of 97:3 v/v acetone/DMSO and 2 volumes of an aqueous mixture containing acetone, water, isopropyl alcohol, DMSO, Agri-dex crop oil concentrate, and Triton® X-77 surfactant in a 64.7:26.0:6.7:2.0:0.7:0.01 v/v ratio. Compound requirements are based upon a 12 mL application volume at a rate of 187 liters per hectare (L/ha). Spray solutions of the second cereal herbicide and experimental compound mixtures were prepared by adding the stock solutions to the appropriate amount of dilution solution to form 12 mL spray solution with active ingredients in two- and three-way combinations. Formulated compounds were applied to the plant material with an overhead Mandel track sprayer equipped with 8002E nozzles calibrated to deliver 187 L/ha over an application area of 0.503 square meters (m^2) at a spray height of 18 inches (43 cm) above average plant canopy. Control plants were sprayed in the same manner with the solvent blank.
(§3) The treated plants and control plants were placed in a greenhouse as described above and watered by sub-irrigation to prevent wash-off of the test compounds. After 20-22 days, the condition of the test plants as compared with that of the control plants was determined visually and scored on a scale of 0 to 100 percent where 0 corresponds to no injury and 100 corresponds to complete kill.
(§4) Colby's equation was used to determine the herbicidal effects expected from the mixtures (Colby, S. R. 1967. Calculation of the synergistic and antagonistic response of herbicide combinations. Weeds 15:20-22.).
(§5) The following equation was used to calculate the expected activity of mixtures containing two active ingredients, A and B: Expected=A+B−(A×B/100)

[2] = system: chickweed (Stellaria media L; STEME); assay: as above
Description: as §1, §2, §3, §4, §5

[3] = system: scented mayweed (Matricaria chamomila L; MATCH); assay: as above
Description: (§6) The plants were grown for 7-36 days in a greenhouse with an approximate 14 hour photoperiod which was maintained at about 18° C. during the day and 17° C. during the night. Nutrients and water were added on a regular basis and supplemental lighting was provided with overhead metal halide 1000-Watt lamps as necessary. The plants were employed for testing when they reached the second or third true leaf stage.
(§7) Treatments consisted of compound (as listed in Tables 1 through 64) and a second cereal herbicide alone and in combination. […] Control plants were sprayed in the same manner with the solvent blank.
as §3, §5

[4] = system: black mustard (Brassica nigra L; BRSNI); assay: as above
Description: as §1, §2, §3, §4, §5

[5] = system: cut-leaf geranium (Geranium dissectum L; GERDI); assay: as above
Description: as §1, §2, §3, §4, §5

[6] = system: wild buckwheat (Polygonum convolvulus L; POLCO); assay: as above
Description: as §1, §2, §3, §4, §5

[7] = system: bird's-eye speedwell (Veronica persica L; VERPE); assay: as above
Description: as §6, §7, §3, §5

[8] = system: wild pansy (Viola tricolor L; VIOTR); assay: as above
Description: as §6, §7, §3, §5

[9] = system: Ischaemum rugosum SALISB. (ISCRU); assay: Postemergence herbicidal mixtures for weed control in direct seeded rice (greenhouse, visual % injury)
[10] = system: blackgrass (Alopecurus myosuroides L; ALOMY); assay: Postemergence herbicidal activity of mixtures in cereal crops (greenhouse, visual injury 0-100 percent after 20-22 days); settings: 8.75 g/ha, Table 19
Description: as §1, with “When required to ensure good germination and healthy plants, a fungicide treatment and/or other chemical or physical treatment was applied.” left out
Treatments consisted of compound (as listed in Tables 1 through 64) and a second cereal herbicide alone and in combination. […] The concentrated stock solutions were diluted to 1.5 mg ai/mL with the addition of 2 volumes of an aqueous mixture containing acetone, water, isopropyl alcohol, DMSO, Agri-dex crop oil concentrate, and Triton® X-77 surfactant in a 64.7:26.0:6.7:2.0:0.7:0.01 v/v ratio. A dilution solution was prepared by mixing 1 volume of 97:3 v/v acetone/DMSO and 2 volumes of an aqueous mixture containing acetone, water, isopropyl alcohol, DMSO, Agri-dex crop oil concentrate, and Triton® X-77 surfactant in a 64.7:26.0:6.7:2.0:0.7:0.01 v/v ratio. Compound requirements are based upon a 12 mL application volume at a rate of 187 liters per hectare (L/ha). […] Formulated compounds were applied to the plant material with an overhead Mandel track sprayer equipped with 8002E nozzles calibrated to deliver 187 L/ha over an application area of 0.503 square meters (m^2) at a spray height of 18 inches […] above average plant canopy. Control plants were sprayed in the same manner with the solvent blank.
as §3, §4, §5

[11] = system: rigid ryegrass (Lolium rigidum L; LOLRI); assay: Postemergence herbicidal activity of mixtures in cereal crops (greenhouse, visual injury)
Description: as §1, §2, §3, §4, §5

[12] = system: Canada thistle (Cirsium arvense L; CIRAR); assay: as above
Description: as §6, §7, §3, §5

[13] = system: kochia (Kochia scoparia L; KCHSC); assay: as above
Description: as §1, §2, §3, §4, §5

CCCN(CCC)C(=O)SCc1ccccc1 [Prosulfocarb]
SASKR Ob ([1]; 500 g/ha alone): 0%
pest or weed control at 500 g/ha ([2]; Stellaria media, post-emergence, 500 g/ha alone, read-out: STEME Ob): 0%
pest or weed control at 500 g/ha ([3]; Matricaria, post-emergence, 500 g/ha alone, read-out: MATCH Ob): 0%

CCC(Oc1ccc(F)c(C(F)(F)F)c1)C(=O)NCc1ccccc1 (stereo not shown) [Beflubutamid]
BRSNI Ob ([4]; 35 g/ha): 30%
BRSNI Ob ([4]; 70 g/ha): 30%
STEME Ob ([2]; 35 g/ha): 10%
STEME Ob ([2]; 70 g/ha): 10%
GERDI Ob ([5]; 35 g/ha): 0%
GERDI Ob ([5]; 70 g/ha): 0%
POLCO Ob ([6]; 35 g/ha): 10%
POLCO Ob ([6]; 70 g/ha): 20%
VERPE Ob ([7]; 35 g/ha): 15%
VERPE Ob ([7]; 70 g/ha): 23%
VIOTR Ob ([8]; 35 g/ha): 15%
VIOTR Ob ([8]; 70 g/ha): 23%

CCc1cnc(C2=NC(C)(C(C)C)C(=O)N2)c(C(=O)O)c1 (stereo not shown) [Imazethapyr]
% Injury ISCRU Ob ([9]; alone 35 g/ha): 20%

CCS(=O)(=O)c1nc2ccccn2c1S(=O)(=O)NC(=O)Nc1nc(OC)cc(OC)n1 [Sulfosulfuron, N-[[(4,6-dimethoxy-2-pyrimidinyl)amino]carbonyl]-2-(ethylsulfonyl)imidazo[1,2-a]pyridine-3-sulfonamide, reference compound]
ALOMY Ob [10]: 85%
LOLRI ([11]; 8.75 g/ha, Table 19): 10%
CIRAR Ob ([12]; 8.75 g/ha): 10%
pest or weed control at 8.75 g/ha ([7]; Veronica persica, post-emergence, 8.75 g/ha, read-out: VERPE Ob): 30%

COc1c(Cl)ccc(-c2cc(N)c(Cl)c(C(=O)[O-])n2)c1F.[K+] [Compound A K-salt]
SASKR Ob ([1]; 8.75 g/ha alone): 63%
SASKR Ob ([1]; 17.5 g/ha alone): 67%
SASKR Ob ([1]; 35 g/ha alone): 73%
KCHSC Ob ([13]; 8.75 g/ha alone): 67%
KCHSC Ob ([13]; 17.5 g/ha alone): 77%
KCHSC Ob ([13]; 35 g/ha alone): 90%
KCHSC Ob ([13]; alone 8.75 g/ha): 67%
KCHSC Ob ([13]; alone 17.5 g/ha): 77%
KCHSC Ob ([13]; alone 35 g/ha): 90%
VERPE Ob ([7]; 8.75 g/ha alone): 73%
VERPE Ob ([7]; 17.5 g/ha alone): 78%
VERPE Ob ([7]; 35 g/ha alone): 83%
VERPE Ob ([7]; alone 8.75 g/ha): 73%
VERPE Ob ([7]; alone 17.5 g/ha): 78%
VERPE Ob ([7]; alone 35 g/ha): 83%
MATCH Ob ([3]; 8.75 g/ha alone): 50%
MATCH Ob ([3]; 17.5 g/ha alone): 62%
MATCH Ob ([3]; 35 g/ha alone): 57%
MATCH Ob ([3]; alone 8.75 g/ha): 50%
MATCH Ob ([3]; alone 17.5 g/ha): 62%
MATCH Ob ([3]; alone 35 g/ha): 57%
VIOTR Ob ([8]; 8.75 g/ha alone): 20%
VIOTR Ob ([8]; 17.5 g/ha alone): 48%
VIOTR Ob ([8]; 35 g/ha alone): 42%

CC(C)c1ccc(NC(=O)N(C)C)cc1 [Isoproturon]
SASKR Ob ([1]; 300 g/ha alone): 33%
pest or weed control at 300 g/ha ([4]; Brassica, post-emergence, 300 g/ha alone, read-out: BRSNI Ob): 40%
KCHSC Ob ([13]; 300 g/ha alone): 50%
pest or weed control at 300 g/ha ([8]; Viola tricolor, post-emergence, 300 g/ha alone, read-out: VIOTR Ob): 0%

COc1cc(OC)nc(NC(=O)NS(=O)(=O)c2nc(C(F)(F)F)ccc2C(=O)O)n1 [Flupyrsulfuron, 2-[[[[(4,6-dimethoxy-2-pyrimidinyl)amino]carbonyl]amino]sulfonyl]-6-(trifluoromethyl)-3-pyridinecarboxylic acid, reference compound]
LOLRI Ob ([11]; 5 g/ha, Table 12): 0%
CIRAR Ob ([12]; 5 g/ha): 20%
VERPE Ob ([7]; 5 g/ha): 0%
pest or weed control at 5 g/ha ([7]; Veronica persica, post-emergence, read-out: VERPE Ob): 0%
pest or weed control at 5 g/ha ([8]; Viola tricolor, post-emergence, read-out: VIOTR Ob): 0%

COCc1cnc(C2=NC(C)(C(C)C)C(=O)N2)c(C(=O)O)c1 (stereo not shown) [Imazamox]
% Injury ISCRU Ob ([9]; alone 22.4 g/ha): 50%

Nc1cc(Cl)nc(C(=O)O)c1Cl [Aminopyralid]
SASKR Ob ([1]; 2.5 g/ha alone): 18%
BRSNI Ob ([4]; 2.5 g/ha alone): 0%
GERDI Ob ([5]; 2.5 g/ha alone): 0%
KCHSC Ob ([13]; 2.5 g/ha alone): 0%
VERPE Ob ([7]; 2.5 g/ha alone): 0%
MATCH Ob ([3]; 2.5 g/ha alone): 10% and 8%
VIOTR Ob ([8]; 2.5 g/ha alone): 27%

C[N+](C)(C)CCCl [Chlormequat]
BRSNI Ob ([4]; 155 g/ha alone): 0%
STEME Ob ([2]; 155 g/ha alone): 0%
GERDI Ob ([5]; 155 g/ha alone): 0%
KCHSC Ob ([13]; 155 g/ha alone): 0%
POLCO Ob ([6]; 155 g/ha alone): 10%
MATCH Ob ([3]; 155 g/ha alone): 0%
